Patent US20250101017A1, “SALT CRYSTAL FORM AND FREE BASE CRYSTAL FORM OF KINASE INHIBITOR” (CYTOSINLAB THERAPEUTICS CO., LTD., priority 2022, published 2025)
≈ marks a conversion by molar mass, not a printed value.

Tests used:
Format in all cases: physicochemical
[1] = Solubility of crystal form Form T in different solutions at 37° C. (about 60 mg in 2 mL, 2 h and 24 h; HPLC, pH, XRPD)
Protocol: Approximately 60 mg of the sample was weighed and added into a 4 mL bottle, and 2 mL of different solvents (water, pH 1.0, 3.0, 5.0, 7.0, 9.0, FaSSIF, FeSSIF, and SGF) were added and the mixtures were stirred at 37° C. for 24 h after adding magnetic stirring bar. Samples were taken at 2 and 24 h respectively. After filtration, the sample concentration in the filtrate was tested by HPLC, and the pH value of the filtrate and the XRPD of the remaining solid were also measured. The measured solubility of the sample in different solutions was as follows.

[2] = Solubility at 37° C. in buffer solutions with different pH (about 10 mg in 1 ml, 2 h and 24 h); filtrate concentration and pH, XRPD of remaining solid; settings: for solubility at 2 h / solubility at 24 h: 37 °C, thermodynamic from solid; for solubility at 2 h: read-out: Solubility at 37° C. (mg/ml) 2 h; for solubility at 24 h: read-out: Solubility at 37° C. (mg/ml) 24 h; for pH (24 h): filtrate
Protocol: Approximately 10 mg of malate crystal form VII-A and free base Form A were weighed separately, and 1 ml of buffer solutions with different pH were added to make the solution supersaturated, and the mixtures were stirred at 37° C. for 2 h and 24 hours. The samples were filtered, and the filtrates were measured to determine the concentration and pH value, and the remaining solid was subjected to XRPD determination. The specific results were as follows: […]

[3] = Solid stability of crystal forms (80° C., light exposure, 25° C./60% RH, 40° C./75% RH); purity by liquid chromatography and XRPD of the solids; settings: for Crystal form: XRPD
Protocol: A certain amount of API and malate crystal form VII-A were weighed and added into a liquid phase vial, and a total of 9 parallels were prepared. The 9 parallels were placed separately in 80° C. (open); 25° C., 60% RH (open); 40° C., 75% RH (open); and light stability box closed). The stabilities under conditions of: 80° C. for one day, light exposure for 10 days, as well as 25° C., 60% RH and 40° C., 75% RH for one and two weeks were tested, and the XRPD of the solids were measured.
A certain amount of crystal form B was weighed and added into a liquid phase vial, and a total of 9 parallels were prepared. 9 parallels were placed separately in 80° C.; 25° C., 60% RH, 40° C., 75% RH; and light stability boxe.

CCc1nc2c(N)ncc(-c3ccc(N4CCC(N5CCN(CC)CC5)CC4)c(OC)c3)c2nc1NC1CCOCC1 [Form T, 3-ethyl-8-(4-(4-(4-ethylpiperazin-1-yl)piperidin-1-yl)-3-methoxyphenyl)-N2-(tetrahydro-2H-pyran-4-yl) pyridino [3,4-b]pyrazine-2,5-diamine]
pH ([1]; FaSSIF, filtrate, 2 h): 6.72
pH ([1]; FaSSIF, filtrate, 24 h): 6.73
pH ([1]; FeSSIF, filtrate, 2 h): 6.50
pH ([1]; FeSSIF, filtrate, 24 h): 6.50
pH ([1]; SGF, filtrate, 2 h): 6.20
pH ([1]; SGF, filtrate, 24 h): 6.22
pH of the solution compared to the initial pH value ([1]; other solvents (water, pH 7.0, pH 9.0, FaSSIF)): did not change significantly
crystal form of remaining solid ([1]; other solvents (water, pH 7.0, pH 9.0, FaSSIF), XRPD): did not change
pH ([1]; pH 1.0, filtrate, 2 h): 5.13
pH ([1]; pH 1.0, filtrate, 24 h): 5.17
pH of the filtrate compared to the initial pH value of the buffer solution ([1]; pH 1.0, pH 3.0, pH 5.0, FeSSIF, and SGF): significant changes
solubility at 2 h ([1]; pH 1.0 solution, simulated gastric fluid, thermodynamic from solid, pH 1.0, 37° C., 2 h): 28000 µg/mL (≈ 48.7 mM)
solubility at 24 h ([1]; pH 1.0 solution, simulated gastric fluid, thermodynamic from solid, pH 1.0, 37° C., 24 h): 29300 µg/mL (≈ 51 mM)
pH ([1]; pH 3.0, filtrate, 2 h): 6.51
pH ([1]; pH 3.0, filtrate, 24 h): 6.52
solubility at 2 h ([1]; pH 3.0 solution, aqueous buffer, thermodynamic from solid, pH 3.0, 37° C., 2 h): 23100 µg/mL (≈ 40.2 mM)
solubility at 24 h ([1]; pH 3.0 solution, aqueous buffer, thermodynamic from solid, pH 3.0, 37° C., 24 h): 23200 µg/mL (≈ 40.4 mM)
pH ([1]; pH 5.0, filtrate, 2 h): 6.66
pH ([1]; pH 5.0, filtrate, 24 h): 6.67
solubility ([1]; pH 5.0 solution, aqueous buffer, thermodynamic from solid, 37° C., pH 5.0): ~8000 µg/mL (≈ 13.9 mM)
solubility at 2 h ([1]; pH 5.0 solution, aqueous buffer, thermodynamic from solid, pH 5.0, 37° C., 2 h): 8370 µg/mL (≈ 14.6 mM)
solubility at 24 h ([1]; pH 5.0 solution, aqueous buffer, thermodynamic from solid, pH 5.0, 37° C., 24 h): 8170 µg/mL (≈ 14.2 mM)
pH ([1]; pH 7.0, filtrate, 2 h): 6.99
pH ([1]; pH 7.0, filtrate, 24 h): 6.98
solubility at 2 h ([1]; pH 7.0 solution, aqueous buffer, thermodynamic from solid, pH 7.0, 37° C., 2 h): 60 µg/mL (≈ 0.104 mM)
solubility at 24 h ([1]; pH 7.0 solution, aqueous buffer, thermodynamic from solid, pH 7.0, 37° C., 24 h): 60 µg/mL (≈ 0.104 mM)
pH ([1]; pH 9.0, filtrate, 2 h): 8.77
pH ([1]; pH 9.0, filtrate, 24 h): 8.79
solubility at 2 h ([1]; pH 9.0 solution, aqueous buffer, thermodynamic from solid, pH 9.0, 37° C., 2 h): 2 µg/mL (≈ 0.00348 mM)
solubility at 24 h ([1]; pH 9.0 solution, aqueous buffer, thermodynamic from solid, pH 9.0, 37° C., 24 h): 2 µg/mL (≈ 0.00348 mM)
solubility at 2 h ([1]; simulated gastric fluid, thermodynamic from solid, SGF, 37° C., 2 h): 27600 µg/mL (≈ 48.1 mM)
solubility at 24 h ([1]; simulated gastric fluid, thermodynamic from solid, SGF, 37° C., 24 h): 27300 µg/mL (≈ 47.5 mM)
solubility ([1]; solutions: pH 1.0, thermodynamic from solid, 37° C., pH 1.0, pH 3.0, FeSSIF, and SGF): > 18000 µg/mL
solubility ([1]; thermodynamic from solid, 37° C., water, pH 7.0, pH 9.0, and FaSSIF): < 700 µg/mL
solubility at 2 h ([1]; thermodynamic from solid, FaSSIF, 37° C., 2 h): 670 µg/mL (≈ 1.17 mM)
solubility at 24 h ([1]; thermodynamic from solid, FaSSIF, 37° C., 24 h): 700 µg/mL (≈ 1.22 mM)
solubility at 2 h ([1]; thermodynamic from solid, FeSSIF, 37° C., 2 h): 18900 µg/mL (≈ 32.9 mM)
solubility at 24 h ([1]; thermodynamic from solid, FeSSIF, 37° C., 24 h): 18700 µg/mL (≈ 32.5 mM)
solubility at 2 h ([1]; thermodynamic from solid, water, 37° C., 2 h): 2 µg/mL (≈ 0.00348 mM)
solubility at 24 h ([1]; thermodynamic from solid, water, 37° C., 24 h): 3 µg/mL (≈ 0.00522 mM)
pH ([1]; water, filtrate, 2 h): 7.20
pH ([1]; water, filtrate, 24 h): 7.12

CCc1nc2c(N)ncc(-c3ccc(N4CCC(N5CCN(CC)CC5)CC4)c(OC)c3)c2nc1NC1CCOCC1 [Malate crystal form VII-A]
solubility at 2 h ([2]; FeSSIF, fessif, medium FeSSIF, 2 h): > 10 mg/mL
solubility at 24 h ([2]; FeSSIF, fessif, medium FeSSIF, 24 h): > 10 mg/mL
solubility at 2 h ([2]; SGF, simulated gastric fluid, medium SGF, 2 h): > 10 mg/mL
solubility at 24 h ([2]; SGF, simulated gastric fluid, medium SGF, 24 h): > 10 mg/mL
pH (24 h) ([2]; medium FaSSIF): 6.524
pH (24 h) ([2]; medium FeSSIF): 5.796
pH (24 h) ([2]; medium H2O): 7.026
pH (24 h) ([2]; medium SGF): 1.644
pH (24 h) ([2]; medium pH 1.2): 1.605
pH (24 h) ([2]; medium pH 3.0): 4.601
pH (24 h) ([2]; medium pH 4.5): 5.468
pH (24 h) ([2]; medium pH 6.8): 6.775
pH (24 h) ([2]; medium pH 7.4): 7.389
Solubility at 37° C. (mg/ml) 2 h ([2]; medium FaSSIF, 2 h): >10 mg/mL
Solubility at 37° C. (mg/ml) 24 h ([2]; medium FaSSIF, 24 h): >10 mg/mL
Solubility at 37° C. (mg/ml) 2 h ([2]; medium H2O, 2 h): >10 mg/mL
Solubility at 37° C. (mg/ml) 24 h ([2]; medium H2O, 24 h): >10 mg/mL
Solubility at 37° C. (mg/ml) 2 h ([2]; medium pH 1.2, 2 h): >10 mg/mL
Solubility at 37° C. (mg/ml) 24 h ([2]; medium pH 1.2, 24 h): >10 mg/mL
Solubility at 37° C. (mg/ml) 2 h ([2]; medium pH 3.0, 2 h): >10 mg/mL
Solubility at 37° C. (mg/ml) 24 h ([2]; medium pH 3.0, 24 h): >10 mg/mL
Solubility at 37° C. (mg/ml) 2 h ([2]; medium pH 4.5, 2 h): >10 mg/mL
Solubility at 37° C. (mg/ml) 24 h ([2]; medium pH 4.5, 24 h): >10 mg/mL
Solubility at 37° C. (mg/ml) 2 h ([2]; medium pH 6.8, 2 h): >10 mg/mL
Solubility at 37° C. (mg/ml) 24 h ([2]; medium pH 6.8, 24 h): >10 mg/mL
Solubility at 37° C. (mg/ml) 2 h ([2]; medium pH 7.4, 2 h): >10 mg/mL
Solubility at 37° C. (mg/ml) 24 h ([2]; medium pH 7.4, 24 h): >10 mg/mL
Degradation (%) ([3]; 25° C., 60% RH (open), 1 week): 0.03%
Purity (%) ([3]; 25° C., 60% RH (open), 1 week): 95.81%
Crystal form ([3]; 25° C., 60% RH (open), 1 week): Unchanged
Degradation (%) ([3]; 25° C., 60% RH (open), 2 weeks): 0.32%
Purity (%) ([3]; 25° C., 60% RH (open), 2 weeks): 95.52%
Crystal form ([3]; 25° C., 60% RH (open), 2 weeks): Unchanged
Degradation (%) ([3]; 40° C., 75% RH (open), 1 week): 0.13%
Purity (%) ([3]; 40° C., 75% RH (open), 1 week): 95.71%
Crystal form ([3]; 40° C., 75% RH (open), 1 week): Unchanged
Degradation (%) ([3]; 40° C., 75% RH (open), 2 weeks): 1.06%
Purity (%) ([3]; 40° C., 75% RH (open), 2 weeks): 94.78%
Crystal form ([3]; 40° C., 75% RH (open), 2 weeks): Unchanged
Degradation (%) ([3]; 80° C. (open), 1 day): 0.62%
Purity (%) ([3]; 80° C. (open), 1 day): 95.22%
Crystal form ([3]; 80° C. (open), 1 day): Unchanged
Degradation (%) ([3]; Light contral, 10 days): 0.05%
Purity (%) ([3]; Light contral, 10 days): 95.79%
Crystal form ([3]; Light contral, 10 days): Unchanged
Degradation (%) ([3]; Light exposure, 10 days): 6.67%
Purity (%) ([3]; Light exposure, 10 days): 89.17%
Crystal form ([3]; Light exposure, 10 days): Unchanged
Purity (%) ([3]; initial): 95.84%
Degradation ([3]; light exposure and 40° C., 75% RH): varying degrees of degradation
